The record followed here is the METLIN SMRT retention time set (Domingo-Almenara et al. 2019).

The data set can be described thus: gradient 5% acetonitrile 3 min, to 50% in 2 min, to 85% in 15 min, held 3 min, 100 µL/min. The following applies: column: Zorbax Extend-C18 2.1 x 50 mm; eluents: water / acetonitrile, 0.1% formic acid. In short, it runs like this: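 Values are retention times taken from adduct peaks that software picked and an analyst inspected. The pure standards were run as mixtures of ~100 molecules on HPLC linked to a quadrupole time-of-flight mass spectrometer, in positive and negative ionization mode. A Zorbax Extend-C18 column (2.1 × 50 mm, 1.8 μm) was used at 100 μL/min with water and acetonitrile, each including 0.1% formic acid.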
As for `CC(C)NC(=O)c1ccnn1C`, the RP-LC retention time was found to be 604 s.

`COC(=O)c1ccc2c(=O)n(-c3cccc(Cl)c3)c(N3CCC(C(N)=O)CC3)nc2c1`: the RP-LC retention time amounted to 781 s.

In turn, `Cc1cc(NC(=O)CC2COc3ccccc3NC2=O)ccc1Br` (stereo not given) came in with an RP-LC retention time of 791 s.

Compound `CCC(C)NC(=O)Cn1ncc2c(c1=O)N(C)C(=O)CS2` (stereo not given) displayed an RP-LC retention time of 606 s.

`Cc1nc(-c2noc(-c3ccccc3)n2)cn1CC(=O)NCc1ccc2c(c1)OCO2` showed an RP-LC retention time of 800 s.

In turn, `CC1(C(=O)NCc2ccc(F)cc2)CCCN(C(=O)NCc2ccco2)C1` (stereo not given) displayed an RP-LC retention time of 765 s.

For the compound `O=C(NCC1(c2ccccc2)CCOCC1)c1c(F)cccc1Cl`, the RP-LC retention time came out at 769 s.

`O=C(NCc1ccc(Cl)cc1)c1ccc(NC(=O)C2CCC2)cc1N1CCOCC1` gave an RP-LC retention time of 896 s.

In turn, `Cc1cc2cc(CNC(=O)C(=O)c3c(C)[nH]c4ccccc34)ccc2[nH]1` gave an RP-LC retention time of 1010 s.

For the compound `CC(C)Oc1ccc(-c2noc(Cc3nnc(-c4ccccc4)o3)n2)cc1`, the RP-LC retention time was determined as 1100 s.

For the compound `Cc1csc(-c2ccc(N3CCN(C(=O)c4ccc(F)c(F)c4)CC3)nc2)n1`, the RP-LC retention time came out at 846 s.

For the compound `COc1cccc(-c2noc(C3CCCN3C(=O)Nc3ccc(Br)cc3)n2)c1` (stereo not given), the RP-LC retention time is 964 s.

As for `O=C(Nc1c(-c2ccccc2)nc2ccccn12)c1ccc(Br)cc1`, the RP-LC retention time was found to be 684 s.

`Cn1c(C(=O)c2ccncc2)cc2ccccc21` showed an RP-LC retention time of 881 s.

Compound `O=C(NC1CC1)c1nc(C(=O)N2CCN(c3ccccn3)CC2)cs1` showed an RP-LC retention time of 559 s.

In turn, `Cn1c(C#N)ccc1-c1ccc2c(c1)C(C)(C)OC(=S)N2` displayed an RP-LC retention time of 989 s.

Regarding `O=C(Nc1cccn2cnnc12)c1ccc(C(F)(F)F)cc1`, the RP-LC retention time came out at 744 s.

Consider `C=CCN1CCc2c(cc(O)c(O)c2Cl)C(c2ccccc2)C1` (stereo not given), for which the RP-LC retention time was determined as 666 s.

Compound `COc1ccc(C(=O)Nc2nccnc2C(=O)NCc2ccc(Br)cc2)cc1` came in with an RP-LC retention time of 1010 s.

In turn, `Cc1cccc(CC(=O)N2C[C@@H]3C[C@H]2C[C@@H]3NS(=O)(=O)c2ccccc2)c1` displayed an RP-LC retention time of 832 s.

`CCOCCCNC(=O)Nc1ccc2nc3n(c(=O)c2c1)CCCC3` registered an RP-LC retention time of 563 s.

For the compound `CNC(=O)N1CCC(C2CCN(C(=O)CSC)C2)CC1` (stereo not given), the RP-LC retention time is 608 s.

`CC(C)N1CCN(C(=O)c2ccc(-c3ccnc(N4CCCC4)n3)cc2)CC1` had an RP-LC retention time of 562 s.

On to `COc1ccccc1CCC(=O)Nc1ccc2c(c1)Sc1ncccc1C(=O)N2C(C)C`, for which the RP-LC retention time amounted to 922 s.

In turn, `Cc1noc(C2CN(C(=O)Nc3ccccc3)CC23CCOCC3)n1` (stereo not given) showed an RP-LC retention time of 650 s.

The compound `CCOc1ccccc1NC(=O)C(=O)Nc1ccc([N+](=O)[O-])cc1` returned an RP-LC retention time of 1060 s.

For the compound `Cc1cccc(OCc2nc(-c3ccc4nnn(C)c4c3)no2)c1`, the RP-LC retention time worked out at 985 s.

`COc1cc(=O)n(-c2ccccc2)nc1C(=O)N1c2ccc(F)cc2CCC1C` (stereo not given) had an RP-LC retention time of 866 s.

`O=S(=O)(c1ccccc1)N1CC[C@@H]2COCCN(Cc3ccccc3)[C@@H]2C1`: the RP-LC retention time stood at 675 s.

`COc1ccc(Cl)cc1NC(=O)N1CCN(c2cc(C)nc(Nc3ccc(C)cc3)n2)CC1`: the RP-LC retention time was 798 s.

On to `O=C(Nc1ccc(F)cc1)C1CCN(S(=O)(=O)c2cc(C(=O)N3CCOCC3)cs2)CC1`, for which the RP-LC retention time is 755 s.

`CN(C)C(=O)CCc1ccc2c(c1)CN(C(=O)CC1CCCC1)CCO2` yielded an RP-LC retention time of 781 s.

`Fc1ccc(-c2nnc(-c3ccc(-n4ccnc4)nc3)o2)cc1` displayed an RP-LC retention time of 648 s.

The compound `O=C(NCCc1cnc[nH]1)c1cc(-c2cccnc2)nc2ccccc12` yielded an RP-LC retention time of 566 s.

With `Cc1nc(-c2cn(C(C)C)c3ncccc23)sc1C(=O)Nc1ccc2c(c1)OCO2`, the RP-LC retention time worked out at 998 s.

`NC(=O)c1cccc2cn(-c3ccc([C@@H]4CCCNC4)cc3)nc12` had an RP-LC retention time of 630 s.

Turning to `CC(C(=O)N1CCCN(c2cc(=O)n(C(C)C)c(=O)n2C(C)C)CC1)N1C(=O)COc2ccccc21` (stereo not given), the RP-LC retention time is 846 s.

`N#Cc1cccc(-c2cn3c(n2)N(C(=O)C2CCC2)CCC3)c1` displayed an RP-LC retention time of 690 s.

Take `CCn1ccc2sc(C)c(C(=O)N3CCCCCC3)c2c1=O`: the RP-LC retention time is 760 s.

Take `CO[C@H]1C(=O)N(C2CCN(S(=O)(=O)c3c(C)noc3C)CC2)[C@H]1c1ccncc1`: the RP-LC retention time was 625 s.

Regarding `COc1cccc(NC(=O)Nc2nccn(-c3ccc(Br)cc3)c2=O)c1`, the RP-LC retention time was 983 s.

`CCOc1ccc(C(=O)N2CCCCC2c2nncn2C)cc1OCC` (stereo not given): the RP-LC retention time turned out to be 646 s.

Compound `Cc1ccc2c(c1)C(=O)NC1(CCN(C(=O)c3ccc(F)c(Cl)c3)CC1)N2C` came in with an RP-LC retention time of 919 s.

As to `COc1ccc(C(=O)N2C[C@@H]3C[C@H](NC(=O)c4ccccc4)[C@H]2C3)c(OC)c1`, the RP-LC retention time is 716 s.

With `CC(C)Cn1cc(CCNS(=O)(=O)Cc2cccc(Cl)c2)c2cccnc21`, the RP-LC retention time came out at 969 s.

Regarding `COc1cc(NC(=O)Cc2csc3nc(-c4ccc(Cl)cc4)cn23)cc(OC)c1OC`, the RP-LC retention time was found to be 875 s.

Consider `CC(C)C(=O)Nc1ccc2ncnc(N3CCCC3)c2c1`, for which the RP-LC retention time amounted to 591 s.

`Cc1noc(CC2CCOC3(CCN(C(=O)C4(c5ccccc5)CC4)CC3)C2)n1` (stereo not given) showed an RP-LC retention time of 820 s.

As for `CCCCn1cc(S(=O)(=O)Nc2cc(C)ccc2F)c2cccnc21`, the RP-LC retention time was 754 s.

In turn, `COCCNC(=O)c1cccnc1N1CCNC(c2ccccc2)C1` (stereo not given) showed an RP-LC retention time of 564 s.

The compound `COc1ccccc1-c1nnc(-c2cccc(S(=O)(=O)N3CCCCC3)c2)o1` returned an RP-LC retention time of 981 s.

Turning to `Cn1ccc2cc(S(=O)(=O)N3CCCC(C(=O)NCCCN4CCOCC4)C3)ccc21` (stereo not given), the RP-LC retention time is 627 s.

`CCc1cccc(NC(=O)Cn2nc3cc(C)nc(Nc4ccc(F)c(C)c4)n3c2=O)c1` displayed an RP-LC retention time of 1190 s.

`CCc1nc2c(=O)n(CC(=O)N3CCCCCC3)nc(C)c2s1` gave an RP-LC retention time of 706 s.

The compound `CCCc1noc(-c2cccn3c(CC(=O)N4CCOCC4)nnc23)n1` came in with an RP-LC retention time of 626 s.

`Cc1cccc(-c2nnc(-c3ccc(Cl)c(S(=O)(=O)N4CCCC4)c3)o2)c1` had an RP-LC retention time of 1150 s.

The compound `CCCCNC(=O)C1c2ccccc2C(=O)N(C)C1c1cccs1` (stereo not given) gave an RP-LC retention time of 775 s.

Consider `CCOc1cccc(CNc2c(C(=O)OC)c(=O)[nH]c3c(Cl)cccc23)c1`, for which the RP-LC retention time is 873 s.

With `CCCCN(C)C(=O)c1cn2cc(C)ccc2n1`, the RP-LC retention time was found to be 608 s.

`CN1C(=O)c2ccccc2C(C(=O)N2CCN(c3ccccn3)CC2)C1c1cccs1` (stereo not given) came in with an RP-LC retention time of 608 s.

With `Cc1ccc2c(c1)N(Cc1cc(F)cc(F)c1)N=C(C(=O)N1CCC(C)CC1)S2(=O)=O`, the RP-LC retention time was 1080 s.

`O=S(=O)(c1cc(-c2cc(C(F)(F)F)on2)cs1)N1CCN(c2ccc(Cl)cc2)CC1` showed an RP-LC retention time of 1290 s.

`Cc1nnc(-c2cn(CC(=O)Nc3ccccc3Br)c3ccccc23)o1` came in with an RP-LC retention time of 829 s.

Turning to `CCn1c(SC)nnc1-c1nn(C)c2c1CN(C(=O)c1cccn1C)CC2`, the RP-LC retention time was determined as 684 s.

`CCS(=O)(=O)N1CC(=O)N(c2cccc(F)c2)C(C)(C(=O)NC2CCCCCCC2)C1` (stereo not given) had an RP-LC retention time of 956 s.

`Cc1ccc(-n2nc(C)c3sc(N(C)CC(=O)N4CCC5(CC4)OCCO5)nc32)cc1` registered an RP-LC retention time of 932 s.

As to `COc1ccccc1CNc1c(-c2nc(C(C)C)no2)cnc2nc(C)ccc12`, the RP-LC retention time came to 797 s.

In turn, `CCOc1ccc(S(=O)(=O)N2CCc3c(c(-c4nnc(SCC)n4CC)nn3C)C2)cc1` returned an RP-LC retention time of 961 s.

`CCN(C(=O)C1CCCN1S(=O)(=O)c1cc2c(cc1C)NC(=O)C(C)O2)c1ccccc1` (stereo not given) yielded an RP-LC retention time of 814 s.

`O=C(C1CCCN(c2nc3ccccc3n3cccc23)C1)N1CCN(c2ccccc2)CC1` (stereo not given) came in with an RP-LC retention time of 793 s.

`Cc1oc(-c2ccc(C(=O)NCCCN3CCN(C)CC3)cc2)nc1CSc1ccccc1` showed an RP-LC retention time of 645 s.

Compound `O=C([C@@H]1C[C@H](F)CN1C(=O)c1cccc(Br)c1)N1CCCCC1` returned an RP-LC retention time of 742 s.

Compound `Cc1ccc(-c2ncccc2CNS(=O)(=O)c2ccc(F)cc2)cc1` came in with an RP-LC retention time of 707 s.

With `Cc1noc(C)c1S(=O)(=O)N1CCc2c(c(-c3nnc(-c4ccc(F)cc4)o3)nn2C)C1`, the RP-LC retention time amounted to 910 s.

The compound `O=c1c2c(CO)c(-c3ccccc3)nn2ccn1Cc1ccc(Br)cc1` came in with an RP-LC retention time of 1010 s.

Regarding `COc1ccc2[nH]c3c(c2c1)CCNC31CCN(S(=O)(=O)c2cccnc2)CC1`, the RP-LC retention time was determined as 634 s.

`Cc1ccc2nc(-c3ccccc3)c(Nc3ccc(Cl)cc3)n2c1`: the RP-LC retention time came out at 755 s.

In the case of `Cc1ccc(CNC(=O)C2Cn3cccc3C(=O)N2)o1` (stereo not given), the RP-LC retention time is 633 s.

`CCCN1C(=O)CN(S(=O)(=O)c2ccccc2)CC1(C)C(=O)NCc1ccc(C)cc1` (stereo not given) yielded an RP-LC retention time of 898 s.

For `Cc1ccc(-n2nc(C)c3c(C)cc(OCC(=O)NCc4ccc5c(c4)OCO5)nc32)cc1`, the RP-LC retention time was 1060 s.
